Laboratory results: publication PMC6850446, “In vivo inactivation of glycosidases by conduritol B epoxide and cyclophellitol as revealed by activity‐based protein profiling” (The Febs Journal, 2019)
Read-outs that look alike come from different tables or passages of the source.

What was measured:
GBA (HEK293T cells) = biological target: T1, GBA (HEK293T cells) (Homo sapiens, UniProt P04062); assay: intact cells treated, residual activity in lysate with 4MU-glucoside; assay type: cell-based; settings: covalent, 24 h treatment of intact HEK293T cells, assay pH 5.2 with 25 nM AMP-DNM to block GBA2
T1 construct: gene GBA1; endogenous lysosomal enzyme in HEK293T cells that stably express human GBA2; 58-66 kDa on gel
T1 sequence (P04062 40-536): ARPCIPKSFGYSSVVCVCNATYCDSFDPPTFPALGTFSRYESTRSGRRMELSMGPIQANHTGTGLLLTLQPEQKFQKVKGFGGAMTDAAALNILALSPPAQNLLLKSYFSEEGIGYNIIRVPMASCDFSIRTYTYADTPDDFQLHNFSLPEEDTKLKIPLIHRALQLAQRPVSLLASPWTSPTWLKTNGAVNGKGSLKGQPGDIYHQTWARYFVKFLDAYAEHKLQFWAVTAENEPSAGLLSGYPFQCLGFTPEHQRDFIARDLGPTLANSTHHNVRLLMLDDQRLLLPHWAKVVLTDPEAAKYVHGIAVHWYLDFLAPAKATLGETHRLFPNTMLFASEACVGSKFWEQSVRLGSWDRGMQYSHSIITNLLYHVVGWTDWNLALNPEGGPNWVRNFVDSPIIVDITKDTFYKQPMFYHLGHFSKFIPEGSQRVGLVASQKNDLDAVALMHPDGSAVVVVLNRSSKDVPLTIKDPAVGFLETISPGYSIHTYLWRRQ
Description: intact cells treated, residual activity in lysate with 4MU-glucoside on GBA (HEK293T cells)

GUSB (zebrafish larvae) = biological target: T2, GUSB (zebrafish larvae) (Danio rerio, UniProt F1QGS9); assay: live larvae exposed, residual activity in lysate with 4MU-beta-D-glucuronide; settings: covalent; in vivo: concentration in egg water, 5 days at 28.5 °C; assay pH 5.0; read-out: CBE / Enz. assay
T2 construct: endogenous enzyme in larvae, measured in larval lysate
T2 sequence (F1QGS9 26-644): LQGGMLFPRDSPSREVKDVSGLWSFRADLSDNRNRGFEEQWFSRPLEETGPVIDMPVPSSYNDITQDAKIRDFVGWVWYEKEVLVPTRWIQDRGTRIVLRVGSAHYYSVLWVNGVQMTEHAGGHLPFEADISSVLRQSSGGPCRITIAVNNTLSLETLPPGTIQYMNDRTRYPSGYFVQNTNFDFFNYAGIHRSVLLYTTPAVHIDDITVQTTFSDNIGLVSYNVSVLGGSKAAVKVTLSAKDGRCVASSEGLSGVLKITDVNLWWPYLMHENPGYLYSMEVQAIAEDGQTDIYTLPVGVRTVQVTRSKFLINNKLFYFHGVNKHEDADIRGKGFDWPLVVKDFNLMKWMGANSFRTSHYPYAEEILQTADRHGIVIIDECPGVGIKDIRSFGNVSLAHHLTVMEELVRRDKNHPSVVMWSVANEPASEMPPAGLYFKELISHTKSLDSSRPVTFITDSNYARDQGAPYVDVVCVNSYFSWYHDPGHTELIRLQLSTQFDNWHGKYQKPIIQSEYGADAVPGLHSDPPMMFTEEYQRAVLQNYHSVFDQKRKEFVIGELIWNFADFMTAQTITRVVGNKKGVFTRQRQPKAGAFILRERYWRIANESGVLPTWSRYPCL
Description: live larvae exposed, residual activity in lysate with 4MU-beta-D-glucuronide on GUSB (zebrafish larvae)

GANAB (zebrafish larvae) = system: T3, GANAB (zebrafish larvae); assay: live larvae exposed, residual activity in lysate with 4MU-alpha-D-glucopyranoside; parameters: species or system Danio rerio; settings: covalent; in vivo: concentration in egg water, 5 days at 28.5 °C; assay pH 7.0; read-out: CBE / Enz. assay
T3 construct: endogenous enzyme in larvae, measured in larval lysate; paralogues not distinguished
Description: live larvae exposed, residual activity in lysate with 4MU-alpha-D-glucopyranoside on GANAB (zebrafish larvae)

| IC50 (GBA (HEK293T cells); read-out: CBE / Enz. assay) [µM] | IC50 (GUSB (zebrafish larvae)) [µM] | Structure (SMILES) | IC50 (GANAB (zebrafish larvae)) [µM] | IC50 (GBA (HEK293T cells); read-out: CP / Enz. assay) [µM] |
| --- | --- | --- | --- | --- |
| 0.331 | 6380 | OC1C(O)C(O)C2OC2C1O (stereo not shown) [compound 1, conduritol B epoxide] | 4550 | – |
| – | – | OC[C@@H]1[C@@H](O)[C@H](O)[C@@H](O)[C@@H]2O[C@H]12 [compound 2, cyclophellitol] | – | 0.086 |
